Article PMC8379256, “A xanthene derivative, DS20060511, attenuates glucose intolerance by inducing skeletal muscle-specific GLUT4 translocation in mice” (Communications Biology, 2021)
Values joined by “and” are separate entries in the source; they are usually repeats but may differ in a detail not shown here. Equal values may be shown once.

What was measured:
C57BL/6 mice [1] = experiment: Blood glucose after DS20060511 alone in fed or overnight food-deprived mice; assay type: in vivo, mouse; conditions: for Blood glucose: 30 mg/kg; for blood glucose levels (in words): 30 mg kg−1
Method: Fig. 2 Treatment with DS20060511 decreases the blood glucose levels via inducing GLUT4 translocation and increasing skeletal muscle glucose uptake. a, b Blood glucose levels after treatment with DS20060511 (30 mg kg^−1) in C57BL/6 mice that had received continued access to food (a) and mice that had been denied access to food overnight (b) (n = 8). Values shown are means ± SEM. **P < 0.01 vs. 0 min by one-way ANOVA followed by Dunnett’s test. c Blood glucose and plasma insulin levels during oral GTT in the C57BL/6 mice (n = 5–6). The mice received oral administration of vehicle or DS20060511 at the indicated dose, 15 min prior to glucose administration (1.5 g kg^−1). Values shown are means ± SEM. *P < 0.05, **P < 0.01 vs. vehicle by one-way ANOVA followed by Williams’ test. d [^3H]-2-DG uptake in the soleus muscle, gastrocnemius muscle (Gastro.), heart, and white adipose tissue (WAT) at 60 min during the intraperitoneal GTT in the C57BL/6 mice (n = 3). The mice received oral administration of vehicle or DS20060511 (30 mg kg^−1), 15 min prior to glucose administration (1 g kg^−1 glucose containing [^3H]-2-DG). […] Uncropped blots for e can be found in Supplementary Fig. 6.

C57BL/6 mice [2] = experiment: In vivo [3H]-2-DG uptake into tissues during intraperitoneal GTT; parameters: species or system mouse; conditions: for count (dpm) 2DG / count (dpm) Total / dpm/mg 2DG / dpm/mg 2DGP / dpm/mg Total / Ratio: 30 mg/kg; for Ratio: 2DGP relative to vehicle
Method: Tissue glucose uptake was examined by measuring the uptake of [^3H]-2-DG during an intraperitoneal GTT as described previously[46],[47], with minor modifications. Mice that had been denied access to food overnight received oral administration of 30 mg kg^−1 of DS20060511 or vehicle 15 min prior to the glucose load. The mice then received intraperitoneal glucose administration (1 g kg^−1 containing 100 μCi kg^−1 [^3H]-2-DG as tracer), followed by quick removal of the tissues 60 min later. Tissue samples were homogenized in 0.5% perchloric acid and centrifuged, and the supernatants were neutralized with KOH. One aliquot of the supernatants was used for measuring the total radioactivity ([^3H]-2-DG and [^3H]-2-DG 6-phosphate ([^3H]-2-DGP)). A second aliquot of the supernatants was treated with 1 N Ba(OH)2 and 1 N ZnSO4 to remove [^3H]-2-DGP, and the [^3H]-2-DG count was measured. 2-DG uptake into the tissue, which is rapidly metabolized to 2-DGP in the tissue, was estimated by subtracting the count of [^3H]-2-DG from the total count. ^3H-specific activities were counted using a liquid scintillation counter.

[3] = test system: human liver microsomal fraction; experiment: Metabolic stability in human liver microsomes; assay type: in vitro ADME; conditions: after 1 h incubation, 1 μM
Method: C57BL/6 mice that had been denied access to food overnight received the indicated oral dose of DS20060511, and blood samples were collected from the tail vein at the indicated timepoints. Plasma samples for quantitation of DS20060511 were prepared by centrifugation. Another group of mice received oral administration DS20060511 (30 mg kg^−1) and euthanized 75 min later. The soleus and gastrocnemius muscles, heart, and inguinal WAT were removed and homogenized in water (5 vol.) for quantitation of the drug concentrations. Plasma samples and tissue homogenates were analyzed by LC-MS/MS (Nexera MP System, SHIMADZU, Kyoto, Japan; API4000 System, SCIEX, Framingham, MA). The tissue concentrations of the compound were calculated by assuming the volume of 1 g of tissue is 1 mL. Evaluation of the metabolic stability of the compound to mouse and human cytochrome P450 (CYP) was conducted as follows. […] The results were expressed as the amount of compound remaining (expressed as a percentage), based on the ratio of the relative area to that in the control (without reaction).

COc1ccc2c(C)c(C(=O)O)ccc2c1C1C2=C(CC(C)(C)CC2=O)OC2=C1C(=O)CC(C)(C)C2 [DS20060511]
Blood glucose (C57BL/6 mice [1]; Non-fasted, 0 min, individual mice): 125 mg/dL and 139 mg/dL and 194 mg/dL and 126 mg/dL and 129 mg/dL and 150 mg/dL and 154 mg/dL and 134 mg/dL | Blood glucose (C57BL/6 mice [1]; Non-fasted, 30 min): 134 mg/dL and 128 mg/dL and 101 mg/dL and 95 mg/dL and 122 mg/dL and 111 mg/dL and 121 mg/dL and 96 mg/dL | Blood glucose (C57BL/6 mice [1]; Overnight fasted, 0 min): 58 mg/dL and 52 mg/dL and 73 mg/dL and 46 mg/dL and 54 mg/dL and 55 mg/dL and 61 mg/dL | Blood glucose (C57BL/6 mice [1]; Overnight fasted, 30 min): 52 mg/dL and 53 mg/dL and 57 mg/dL and 60 mg/dL and 42 mg/dL and 55 mg/dL and 49 mg/dL | Blood glucose (C57BL/6 mice [1]; Overnight fasted, 60 min): 56 mg/dL and 57 mg/dL and 59 mg/dL and 48 mg/dL and 50 mg/dL and 45 mg/dL | blood glucose levels (in words) (C57BL/6 mice [1]; mice denied access to food overnight, Fig. 2b): no effect on the blood glucose levels | blood glucose levels (in words) (C57BL/6 mice [1]; mice with continued access to food, oral, Fig. 2a): modestly, but statistically significantly, reduced the blood glucose levels | count (dpm) 2DG (C57BL/6 mice [2]; Gastro.): 405 dpm and 366 dpm and 390 dpm | count (dpm) Total (C57BL/6 mice [2]; Gastro.): 1890 dpm and 1397 dpm and 1924 dpm | dpm/mg 2DG (C57BL/6 mice [2]; Gastro.): 63.3 dpm/mg and 57.2 dpm/mg and 60.9 dpm/mg | dpm/mg 2DGP (C57BL/6 mice [2]; Gastro.): 54.8 dpm/mg and 30.1 dpm/mg and 59.3 dpm/mg | dpm/mg Total (C57BL/6 mice [2]; Gastro.): 118.1 dpm/mg and 87.3 dpm/mg and 120.3 dpm/mg | Ratio (C57BL/6 mice [2]; Gastro.): 4.35 and 2.39 and 4.70 | count (dpm) 2DG (C57BL/6 mice [2]; Heart): 398 dpm and 423 dpm and 382 dpm | count (dpm) Total (C57BL/6 mice [2]; Heart): 1218 dpm and 1277 dpm and 1201 dpm | dpm/mg 2DG (C57BL/6 mice [2]; Heart): 62.2 dpm/mg and 66.1 dpm/mg and 59.7 dpm/mg | dpm/mg 2DGP (C57BL/6 mice [2]; Heart): 39.3 dpm/mg and 40.3 dpm/mg and 40.4 dpm/mg | dpm/mg Total (C57BL/6 mice [2]; Heart): 101.5 dpm/mg and 106.4 dpm/mg and 100.1 dpm/mg | Ratio (C57BL/6 mice [2]; Heart): 0.90 and 0.93 | count (dpm) 2DG (C57BL/6 mice [2]; Soleus): 214 dpm and 169 dpm and 183 dpm | dpm/mg 2DG (C57BL/6 mice [2]; Soleus): 100.3 dpm/mg and 79.2 dpm/mg and 85.8 dpm/mg | dpm/mg Total (C57BL/6 mice [2]; Soleus): 286.0 dpm/mg and 229.5 dpm/mg and 201.0 dpm/mg | count (dpm) Total (C57BL/6 mice [2]; Soleus, 30 mg/kg po, 60 min during ip GTT): 572 dpm and 459 dpm and 402 dpm | dpm/mg 2DGP (C57BL/6 mice [2]; Soleus, 2-DG uptake = Total minus 2DG): 185.7 dpm/mg and 150.3 dpm/mg and 115.2 dpm/mg | Ratio (C57BL/6 mice [2]; Soleus): 4.96 and 4.02 and 3.08 | count (dpm) 2DG (C57BL/6 mice [2]; WAT): 697 dpm and 877 dpm and 734 dpm | count (dpm) Total (C57BL/6 mice [2]; WAT): 1450 dpm and 1799 dpm and 1511 dpm | dpm/mg 2DG (C57BL/6 mice [2]; WAT): 34.9 dpm/mg and 43.9 dpm/mg and 36.7 dpm/mg | dpm/mg 2DGP (C57BL/6 mice [2]; WAT): 13.5 dpm/mg and 16.1 dpm/mg and 13.7 dpm/mg | dpm/mg Total (C57BL/6 mice [2]; WAT): 48.3 dpm/mg and 60.0 dpm/mg and 50.4 dpm/mg | Ratio (C57BL/6 mice [2]; WAT): 0.99 and 1.18 and 1.00 | uptake of [3H]-2-DG (in words) (C57BL/6 mice [2]; soleus and gastrocnemius muscles, ip GTT, 30 mg kg−1): significant increase | compound remaining [3]: 79%
